From US11174245B2, “Benzimidazole compounds and derivatives as EGFR inhibitors” (Boehringer Ingelheim International GmbH, priority 2018, dated 2021)

Target: EGFR del19 T790M C797S protein in Ba/F3 cells (Homo sapiens, UniProt P00533, C797S/DEL746-750/T790M)
Assay: pEGFR assay (AlphaScreen Surefire, EGFR Tyr1068 phosphorylation)
Assay type: cell-based
Procedure: Transduced cells were selected using puromycin. Following selection, IL-3 was withdrawn and IL-3 independent cells cultured. p-EGFR Tyr1068 was determined using the AlphaScreen Surefire pEGF Receptor (Tyr1068) Assay (PerkinElmer, TGRERS). […] Subsequently, 60.000 cells/well in 60 μL were added. Cells were incubated with compound for 4 h at 37° C. […] The mixture was incubated at room temperature with shaking (700 rpm) for 20 min. After centrifugation, 4 μL of the lysate were transferred to Proxiplates. […] Plates were shaken for 1 min (1400 rpm) and incubated for 2 h at room temperature in the dark.
The results of the assay are provided as IC50 values (see table 12).

Sequence of EGFR del19 T790M C797S protein in Ba/F3 cells (P00533 with tags, fused parts or gaps C797S/DEL746-750/T790M limits assumed): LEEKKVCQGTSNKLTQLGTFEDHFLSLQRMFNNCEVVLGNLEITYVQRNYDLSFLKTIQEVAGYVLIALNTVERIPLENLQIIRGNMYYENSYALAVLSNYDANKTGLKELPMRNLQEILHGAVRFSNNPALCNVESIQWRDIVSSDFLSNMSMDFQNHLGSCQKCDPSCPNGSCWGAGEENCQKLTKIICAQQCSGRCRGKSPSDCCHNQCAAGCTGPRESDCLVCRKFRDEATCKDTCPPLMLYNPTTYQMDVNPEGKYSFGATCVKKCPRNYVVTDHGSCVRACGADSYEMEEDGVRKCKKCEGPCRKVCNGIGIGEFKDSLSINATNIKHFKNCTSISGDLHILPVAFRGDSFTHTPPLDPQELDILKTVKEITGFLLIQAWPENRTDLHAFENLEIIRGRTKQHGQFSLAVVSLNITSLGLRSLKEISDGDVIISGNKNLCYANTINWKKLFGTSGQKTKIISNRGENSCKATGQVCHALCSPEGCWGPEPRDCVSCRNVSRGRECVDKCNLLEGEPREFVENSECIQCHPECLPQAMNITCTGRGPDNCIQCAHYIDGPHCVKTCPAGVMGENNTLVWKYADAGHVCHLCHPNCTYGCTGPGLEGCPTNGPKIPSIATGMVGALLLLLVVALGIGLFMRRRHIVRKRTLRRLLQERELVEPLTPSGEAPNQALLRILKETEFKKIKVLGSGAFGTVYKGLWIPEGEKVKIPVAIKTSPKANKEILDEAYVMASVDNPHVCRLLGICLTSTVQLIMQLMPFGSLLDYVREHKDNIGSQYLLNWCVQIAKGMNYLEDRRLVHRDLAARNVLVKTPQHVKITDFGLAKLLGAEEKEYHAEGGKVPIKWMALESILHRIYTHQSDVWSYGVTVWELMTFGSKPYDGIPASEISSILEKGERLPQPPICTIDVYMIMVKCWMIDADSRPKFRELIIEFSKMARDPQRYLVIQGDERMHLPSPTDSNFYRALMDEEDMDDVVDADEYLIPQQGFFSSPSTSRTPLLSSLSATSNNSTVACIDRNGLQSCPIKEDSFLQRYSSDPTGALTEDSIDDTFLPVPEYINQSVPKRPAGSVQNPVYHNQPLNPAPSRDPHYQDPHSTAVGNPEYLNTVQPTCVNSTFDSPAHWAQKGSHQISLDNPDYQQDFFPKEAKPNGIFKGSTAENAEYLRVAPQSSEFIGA

## Cc1ccccc1-c1cc(C(=O)/N=c2\[nH]c3ccccc3n2[C@H]2CC[C@@H](O)CC2)ccn1 [I-166]
  IC50: 7 nM

## COc1ccccc1-c1cc(C(=O)/N=c2\[nH]c3cc(C4CCN(C)CC4)ccc3n2[C@H]2CC[C@@H](O)CC2)ccn1 [I-124]
  IC50: 2 nM

## Cn1cc(-c2cc(C(=O)/N=c3\[nH]c4ccccc4n3C3CCCOC3)ccn2)cn1 (stereo not drawn) [I-043]
  IC50: 6 nM

## CC(C)(O)Cn1/c(=N/C(=O)c2ccnc(-c3ccsc3)c2)[nH]c2ccccc21 [I-050]
  IC50: 24 nM

## O=C(/N=c1\[nH]c2ccccc2n1[C@H]1CC[C@@H](O)CC1)c1ccnc(-n2ccc3ccccc32)c1 [I-125]
  IC50: 11 nM

## CC(C)(O)Cn1/c(=N/C(=O)c2ccnc(-n3cnc4cccnc43)c2)[nH]c2ccccc21 [I-040]
  IC50: 3 nM

## Cc1cc(C(=O)/N=c2\[nH]c3ccc(C4CCN(C)CC4)cc3n2C2CCCCC2)cc(-c2cnn(C)c2)n1 [I-228]
  IC50: 2 nM

## Cc1cc2c(cc1N1CCN(C(C)C)CC1)[nH]/c(=N\C(=O)c1ccnc(-c3cnn(C)c3)c1)n2CC(C)(C)O [I-69]
  IC50: 26 nM

## Cn1cc(-c2cc(C(=O)/N=c3\[nH]c4cc(C(C)(C)O)ccc4n3CC(C)(C)O)ccn2)cn1 [I-063]
  IC50: 74 nM

## COc1ccccc1-c1cc(C(=O)/N=c2\[nH]c3ccccc3n2[C@@H]2CCCOC2)ccn1 [I-122]
  IC50: 2 nM

## Cn1ncc2c(-c3cc(C(=O)/N=c4\[nH]c5ccccc5n4CC(C)(C)O)ccn3)cccc21 [I-88]
  IC50: 11 nM

## C[C@@H]1CN(c2ccc3c(c2)[nH]/c(=N\C(=O)c2ccnc(-c4cnn(C)c4)c2)n3CC(C)(C)O)C[C@H](C)N1C [I-73]
  IC50: 81 nM

## COc1ccccc1-c1cc(C(=O)/N=c2\[nH]c3ccccc3n2[C@H]2CCCOC2)ccn1 [I-123]
  IC50: 2 nM

## Cc1cc2c(cc1N1CCCCC1)[nH]/c(=N\C(=O)c1ccnc(-c3cnn(C)c3)c1)n2CC(C)(C)O [I-70]
  IC50: 94 nM

## Cc1ccc2c(c1)[nH]/c(=N\C(=O)c1ccnc(-c3cnn(C)c3)c1)n2[C@H]1CC[C@@H](O)CC1 [I-134]
  IC50: 1 nM

## COc1ccccc1-c1cc(C(=O)/N=c2\[nH]c3ccccc3n2[C@H]2CCC[C@@H](O)C2)ccn1 [I-127]
  IC50: 2 nM

## CC(C)(O)Cn1/c(=N/C(=O)c2ccnc(-c3cccs3)c2)[nH]c2ccccc21 [I-051]
  IC50: 27 nM

## Cn1cc(-c2cc(C(=O)/N=c3\[nH]c4ccccc4n3[C@H]3COCC[C@@H]3O)ccn2)cn1 [I-190]
  IC50: 33 nM

## COc1ccccc1-c1cc(C(=O)/N=c2\[nH]c3cc(CN4CCOCC4)ccc3n2[C@H]2CC[C@@H](O)CC2)ccn1 [I-142]
  IC50: 3 nM

## COc1ccccc1-c1cc(C(=O)/N=c2\[nH]c3ccccc3n2[C@H]2CCC[C@H](O)C2)ccn1 [I-170]
  IC50: 8 nM

## Cc1cc2c(cc1N(C)C)[nH]/c(=N\C(=O)c1ccnc(-c3cnn(C)c3)c1)n2CC(C)(C)O [I-231]
  IC50: 63 nM

## Cc1cc(C(=O)/N=c2\[nH]c3ccc(N4CCN(C)CC4)cc3n2C2CCCCC2)cc(-c2cnn(C)c2)n1 [I-233]
  IC50: 2 nM

## CCc1ccc2c(c1)[nH]/c(=N\C(=O)c1ccnc(-c3cnn(C)c3)c1)n2CC(C)(C)O [I-061]
  IC50: 7 nM

## Cn1cc(-c2cc(C(=O)/N=c3\[nH]c4cc(CN5CCOCC5)ccc4n3CC(C)(C)O)ccn2)cn1 [I-058]
  IC50: 93 nM

## COCCN1CCC(c2ccc3c(c2)[nH]/c(=N\C(=O)c2ccnc(-c4cccnc4)c2)n3CC(C)(C)O)CC1 [I-046]
  IC50: 2 nM

## COCCN1CCC(c2ccc3c(c2)[nH]/c(=N\C(=O)c2ccnc(-c4cnn(C)c4)c2)n3CC(C)(C)O)CC1 [I-047]
  IC50: 3 nM

## Cn1cc(-c2cc(C(=O)/N=c3\[nH]c4ccccc4n3C3CCOCC3)ccn2)cn1 [I-049]
  IC50: 7 nM

## Cn1cc(-c2cc(C(=O)/N=c3\[nH]c4cc(C5CCCCO5)ccc4n3CC(C)(C)O)ccn2)cn1 (stereo not drawn) [I-165]
  IC50: 7 nM

## COc1ccccc1-c1cc(C(=O)/N=c2\[nH]c3ccccc3n2[C@@H]2CCCC[C@H]2O)ccn1 [I-132]
  IC50: 7 nM

## Cn1cc(-c2cc(C(=O)/N=c3\[nH]c4cc(N5CCC6(CCOCC6)CC5)ccc4n3CC(C)(C)O)ccn2)cn1 [I-74]
  IC50: 71 nM

## CN(C)CCOCCNc1ccc2c(c1)[nH]/c(=N\C(=O)c1ccnc(-c3cnn(C)c3)c1)n2CC(C)(C)O [I-87]
  IC50: 81 nM

## COc1cnccc1-c1cc(C(=O)/N=c2\[nH]c3ccccc3n2CC(C)(C)O)ccn1 [I-164]
  IC50: 7 nM

## O=C(/N=c1\[nH]c2ccccc2n1[C@H]1CC[C@@H](O)CC1)c1ccnc(-c2ccccc2OC(F)(F)F)c1 [I-187]
  IC50: 24 nM

## COc1cccc(-c2cc(C(=O)/N=c3\[nH]c4ccccc4n3CC(C)(C)O)ccn2)c1 [I-99]
  IC50: 42 nM

## Cn1cc(-c2cc(C(=O)/N=c3\[nH]c4ccc(F)cc4n3CC(C)(C)O)ccn2)cn1 [I-195]
  IC50: 85 nM

## Cn1cc(-c2cc(C(=O)/N=c3\[nH]c4cc(NC[C@@H]5CCCO5)ccc4n3CC(C)(C)O)ccn2)cn1 [I-81]
  IC50: 9 nM

## CC(C)(O)Cn1/c(=N/C(=O)c2ccnc(-c3cccc4ccnn34)c2)[nH]c2ccccc21 [I-90]
  IC50: 12 nM

## CN(C)C1CCN(c2ccc3c(c2)[nH]/c(=N\C(=O)c2ccnc(-c4cnn(C)c4)c2)n3CC(C)(C)O)C1 (stereo not drawn) [I-80]
  IC50: 89 nM

## Cn1cc(-c2cc(C(=O)/N=c3\[nH]c4cc(CN5CCCCC5)ccc4n3CC(C)(C)O)ccn2)cn1 [I-057]
  IC50: 27 nM

## CNc1ccc2c(c1)[nH]/c(=N\C(=O)c1ccnc(-c3cnn(C)c3)c1)n2CC(C)(C)O [I-172]
  IC50: 9 nM

## O=C(/N=c1\[nH]c2ccccc2n1[C@H]1CC[C@@H](O)CC1)c1ccnc(-n2ccnc2)c1 [I-226]
  IC50: 7 nM

## CC(C)(O)Cn1/c(=N/C(=O)c2ccnc(-c3cccnc3)c2)[nH]c2cc(Cl)ccc21 [I-066]
  IC50: 23 nM

## CCOC(=O)CCc1ccc2c(c1)[nH]/c(=N\C(=O)c1ccnc(-c3cnn(C)c3)c1)n2CC(C)(C)O [I-193]
  IC50: 68 nM

## Cn1cnc2c(-c3cc(C(=O)/N=c4\[nH]c5ccccc5n4CC(C)(C)O)ccn3)cccc21 [I-95]
  IC50: 74 nM

## COc1ccccc1-c1cc(C(=O)/N=c2\[nH]c3cc(CN4CC[C@@H](OC)C4)ccc3n2[C@H]2CC[C@@H](O)CC2)ccn1 [I-159]
  IC50: 6 nM

## Cc1cc(C(=O)/N=c2\[nH]c3ccc(N4CCN(C)CC4)cc3n2[C@H]2CC[C@@H](O)CC2)cc(-c2cnn(C)c2)n1 [I-227]
  IC50: 2 nM

## CNC(=O)Cc1ccc2c(c1)[nH]/c(=N\C(=O)c1ccnc(-c3cccnc3)c1)n2CC(C)(C)O [I-131]
  IC50: 92 nM

## Cn1cc(-c2cc(C(=O)/N=c3\[nH]c4ccccc4n3[C@@H]3CCCC[C@H]3O)ccn2)cn1 [I-154]
  IC50: 9 nM

## CN(C)C(=O)c1cccc(-c2cc(C(=O)/N=c3\[nH]c4ccccc4n3CC(C)(C)O)ccn2)c1 [I-103]
  IC50: 43 nM

## O=C(/N=c1\[nH]c2ccccc2n1[C@H]1CC[C@@H](O)CC1)c1ccnc(-n2ccc3cccnc32)c1 [I-150]
  IC50: 4 nM

## COc1ccccc1-c1cc(C(=O)/N=c2\[nH]c3ccccc3n2[C@H]2COCC[C@@H]2O)ccn1 [I-155]
  IC50: 5 nM

## COc1ccccc1-c1cc(C(=O)/N=c2\[nH]c3cc(C4CCN(C(C)=O)CC4)ccc3n2[C@H]2CC[C@@H](O)CC2)ccn1 [I-121]
  IC50: 2 nM

## Cn1cc(-c2cc(C(=O)/N=c3\[nH]c4cc(NCC5CCOCC5)ccc4n3CC(C)(C)O)ccn2)cn1 [I-68]
  IC50: 14 nM

## Cn1cc(-c2cc(C(=O)/N=c3\[nH]c4cc(C5CCOCC5)ccc4n3CC(C)(C)O)ccn2)cn1 [I-85]
  IC50: 3 nM

## COc1ccccc1-c1cc(C(=O)/N=c2\[nH]c3cc(CN4CC(OC)C4)ccc3n2[C@H]2CC[C@@H](O)CC2)ccn1 [I-140]
  IC50: 2 nM

## CC(C)(O)Cn1/c(=N/C(=O)c2ccnc(-c3cccc(O)c3)c2)[nH]c2ccccc21 [I-104]
  IC50: 12 nM

## COc1ccccc1-c1cc(C(=O)/N=c2\[nH]c3cc(CN4CC[C@H](OC)C4)ccc3n2[C@H]2CC[C@@H](O)CC2)ccn1 [I-151]
  IC50: 4 nM

## COc1ccccc1-c1cc(C(=O)/N=c2\[nH]c3ccccc3n2[C@@H]2CCC[C@@H](O)C2)ccn1 [I-139]
  IC50: 2 nM

## COC[C@H]1CCCN1Cc1ccc2c(c1)[nH]/c(=N\C(=O)c1ccnc(-c3ccccc3OC)c1)n2[C@H]1CC[C@@H](O)CC1 [I-152]
  IC50: 4 nM

## COc1ccccc1-c1cc(C(=O)/N=c2\[nH]c3ccccc3n2[C@H]2CCC[C@H](O)C2)ccn1 [I-119]
  IC50: 3 nM

## CN(C)Cc1cccc(-c2cc(C(=O)/N=c3\[nH]c4ccccc4n3C3CCCCC3)ccn2)c1 [I-117]
  IC50: 12 nM

## CN(C)c1cccc(-c2cc(C(=O)/N=c3\[nH]c4ccccc4n3CC(C)(C)O)ccn2)c1 [I-94]
  IC50: 99 nM

## CCc1ccc2[nH]/c(=N\C(=O)c3ccnc(-c4cccnc4)c3)n(CC(C)(C)O)c2c1 [I-84]
  IC50: 21 nM

## Cc1ccncc1-c1cc(C(=O)/N=c2\[nH]c3ccccc3n2CC(C)(C)O)ccn1 [I-016]
  IC50: 58 nM

## COCCN(C)c1ccc2c(c1)[nH]/c(=N\C(=O)c1ccnc(-c3cccnc3)c1)n2CC(C)(C)O [I-065]
  IC50: 30 nM

## CC(C)(O)Cn1/c(=N/C(=O)c2ccnc(-c3cccnc3)c2)[nH]c2cc(CO)ccc21 [I-067]
  IC50: 16 nM

## CC(C)(O)Cn1/c(=N/C(=O)c2ccnc(-c3cccnc3)c2)[nH]c2cc(N3CCCCC3)ccc21 [I-77]
  IC50: 76 nM

## Cc1c(-c2cc(C(=O)/N=c3\[nH]c4ccccc4n3C3CCCCC3)ccn2)cnn1C [I-044]
  IC50: 2 nM

## CNC(=O)c1cccc(-c2cc(C(=O)/N=c3\[nH]c4ccccc4n3CC(C)(C)O)ccn2)c1 [I-100]
  IC50: 76 nM

## COc1ccccc1-c1cc(C(=O)/N=c2\[nH]c3ccccc3n2[C@@H]2CCC[C@H](O)C2)ccn1 [I-129]
  IC50: 5 nM

## COc1ccccc1-c1cc(C(=O)/N=c2\[nH]c3ccccc3n2[C@H]2CCCC[C@@H]2O)ccn1 [I-97]
  IC50: 14 nM

## Cn1cc(-c2cc(C(=O)/N=c3\[nH]c4ccccc4n3[C@H]3CC[C@@H](O)CC3)cc(F)n2)cn1 [I-133]
  IC50: 1 nM
